Molecular target: T1, human Fpn (Homo sapiens, UniProt Q9NP59)
T1 construct: expressed in transfected cells; host or cells: Xenopus laevis oocytes injected with Fpn RNA
T1 sequence (Q9NP59 1-571): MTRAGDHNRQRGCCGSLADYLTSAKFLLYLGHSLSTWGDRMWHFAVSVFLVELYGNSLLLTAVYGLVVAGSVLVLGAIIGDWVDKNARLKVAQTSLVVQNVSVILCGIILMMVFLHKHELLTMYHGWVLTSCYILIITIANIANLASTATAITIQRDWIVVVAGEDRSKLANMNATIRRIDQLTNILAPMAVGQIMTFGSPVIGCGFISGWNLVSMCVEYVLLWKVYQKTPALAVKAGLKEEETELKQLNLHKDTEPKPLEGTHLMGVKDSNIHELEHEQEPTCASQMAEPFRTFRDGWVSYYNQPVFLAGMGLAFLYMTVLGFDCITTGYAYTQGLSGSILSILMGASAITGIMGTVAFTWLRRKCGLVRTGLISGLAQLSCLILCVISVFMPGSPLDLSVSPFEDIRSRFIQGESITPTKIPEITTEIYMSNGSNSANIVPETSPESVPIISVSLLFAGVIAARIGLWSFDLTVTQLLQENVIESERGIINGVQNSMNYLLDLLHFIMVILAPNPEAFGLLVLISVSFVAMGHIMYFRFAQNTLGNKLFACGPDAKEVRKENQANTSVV
Test: 45Ca radiotracer uptake assay in Xenopus oocytes expressing Fpn
Type: cell-based
Settings: 100 μM 45Ca2+, 30 min; vehicle or 50 nl of 50 µM Fe injected
Protocol: We performed laparotomy and ovariectomy on adult female Xenopus laevis frogs (Nasco, Fort Atkinson, WI) under 2-aminoethylbenzoate methanesulfonate anesthesia (0.2%, by immersion, to effect) following a protocol approved by the University of Cincinnati Institutional Animal Care and Use Committee. Ovarian tissue was isolated and treated for 3 h with […] collagenase A (Roche Diagnostics Corp., Indianapolis, IN) in calcium-free-modified Barths’ medium (MBM) of composition 88 mM NaCl, 1 mM KCl, 2.4 mM NaHCO3, 1.57 mM MgSO4, 0.66 mM NaNO3, 10 mM 4-(2-hydroxyethyl)-1-piperazineethanesulfonic acid (HEPES), buffered to pH 7.5 by using 2-amino-2-hydroxymethyl-propane-1,3-diol (Tris base). We isolated defolliculate stage V–VI oocytes stored at 17 °C in MBM of composition 88 mM NaCl, 1 mM KCl, 2.4 mM NaHCO3, 0.82 MgSO4, 0.75 mM CaCl2, 0.66 mM NaNO3, 10 mM HEPES, buffered to pH 7.5 by using Tris base, with 50 mg l^−1 ciprofloxacin. We expressed in Xenopus oocytes the 1A transcript form of human Fpn fused at its C-terminus with the enhanced green fluorescent protein (GFP) as described. Oocytes were injected with ∼50 ng of Fpn RNA and incubated for 4–6 days before being used in functional assays. Control oocytes were noninjected.
We measured calcium uptake by using a radiotracer assay. […]

[Ca+2] [Ca^2+, calcium]
Uptake of 45Ca2+ in oocytes expressing Fpn vs control: neither Fpn expression nor intracellular iron injection stimulated

Source: paper PMC6079014, “Calcium is an essential cofactor for metal efflux by the ferroportin transporter family” (Nature Communications, 2018)
